Consider six molecules from article PMC10620212, “Postprandial glycemic and lipidemic effects of black rice anthocyanin extract fortification in foods of varying macronutrient compositions and matrices” (NPJ Science of Food, 2023).

Data set [1] addresses α-glucosidase. Briefly: In-vitro starch hydrolase inhibition (starch turbidity assay), α-glucosidase. Format: biochemical. The following applies: mean (SD). The method, then: (§1) To determine the inhibitor activities of major ACN species, 50 μL of enzyme solution was mixed with 50 μL of inhibitor solution of different concentrations and incubated for 15 min at 37 °C. The reaction was initiated by mixing 100 μL of 1% gelatinized wheat starch solution into the enzyme-inhibitor mixtures. Changes in turbidity were immediately monitored at 660 nm for 2 h in a microplate reader preincubated at 37 °C, with one reading per minute, while shaking in between readings to minimize starch sedimentation. Enzyme activities were inversely proportional to the AUC for turbidity readings. The percentage inhibition (%I) was defined as:7 %I=(AUCSample−AUCControl)/AUCSample×100 in which AUCSample is the area under the curve for the inhibitor, and AUCControl is the area under the curve without inhibitors.

Data set [2] concerns the target T1, α-amylase (Sus scrofa, UniProt P00690).
T1 sequence (P00690 16-511): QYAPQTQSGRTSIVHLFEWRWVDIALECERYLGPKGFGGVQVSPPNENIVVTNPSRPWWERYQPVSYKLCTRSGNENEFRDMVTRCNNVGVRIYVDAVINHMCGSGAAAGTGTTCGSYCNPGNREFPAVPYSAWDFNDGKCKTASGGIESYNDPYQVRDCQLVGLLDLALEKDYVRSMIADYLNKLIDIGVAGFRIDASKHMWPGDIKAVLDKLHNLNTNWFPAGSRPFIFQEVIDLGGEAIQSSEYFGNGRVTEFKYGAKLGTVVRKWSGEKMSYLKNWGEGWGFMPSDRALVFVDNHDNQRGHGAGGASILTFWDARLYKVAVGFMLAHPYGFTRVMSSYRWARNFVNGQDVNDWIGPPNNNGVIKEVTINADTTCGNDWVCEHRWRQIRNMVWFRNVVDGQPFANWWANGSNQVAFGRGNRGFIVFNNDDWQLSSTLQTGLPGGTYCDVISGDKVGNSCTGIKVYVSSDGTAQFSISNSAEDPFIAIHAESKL
The data set is described as follows: In-vitro starch hydrolase inhibition (starch turbidity assay), α-amylase. Format: biochemical, porcine. As to conditions: mean (SD). The method, then:
as §1

On the set-up of data set [3]: method as in PMID 24602005, PMID 25347327. The following applies: previous reports; cited from earlier work.
Data set [4] in a line: Bread trial: plasma bioavailability of anthocyanins and phenolic metabolites. As to conditions: for change in plasma concentration, mean difference between 60 and 120 min: 4-BB group. Format: in vivo, human. The method, then:
Bioavailability analysis was performed in the Bread trial according to the methods by Kay, et al.[58]. […] The sample was drained off in a vacuum manifold and washed with 2 volumes of acidified water. The remaining ACN extract was eluted with 6 mL acidified methanol, and subsequently brought to dryness at 25 °C under a continuous stream of nitrogen gas. The residue was dissolved in 200 μL of 0.1% v/v formic acid and filtered through a 13 mm 0.22 μm PTFE hydrophilic syringe filter. The resulting solution was analyzed using a reverse-phased C18 Sunfire column (250 × 4.6 mm/5 μm; Waters, Wexford, Ireland) on an HPLC system (Shimadzu Prominence, Shimadzu, Kyoto, Japan) connected with a DAD. The injection volume was 50 μL. The flow rate and oven temperature were maintained at 1 mL/min at 25 °C. A gradient elution process was applied (mobile phase A: 5% v/v formic acid; mobile phase B: 100% acetonitrile): 0% B for 5 min, 10% B at 20 min, 13% B at 40 min, 20% B at 44 min, 25% B at 50 min, and 100% B at 55 min. Detection of ACNs was performed at 520 nm; while its metabolites, ferulic acid, vanillic acid, and protocatechuic acid were detected at 280 nm. Identification and quantification of each ACN and metabolite were based on matching the retention time and peak areas with the external calibration curve of respective standards.

`COc1cc(-c2[o+]c3cc(O)cc(O)c3cc2O[C@@H]2O[C@H](CO)[C@@H](O)[C@H](O)[C@H]2O)ccc1O` [P3G, peonidin-3-glucoside]: the IC50 in data set [1] was found to be 1340 µM; in data set [2] it was 649 µM.

Turning to `O=C(O)c1ccc(O)c(O)c1` [PCA, protocatechuic acid], the “time of peak plasma concentrations” value in data set [3] is 1 to 2 h. The “share of total polyphenols in plasma at 60 min peak concentrations” value in data set [4] (Bread trial) amounted to 93.9%.

For the molecule `OC[C@H]1O[C@@H](Oc2cc3c(O)cc(O)cc3[o+]c2-c2ccc(O)c(O)c2)[C@H](O)[C@@H](O)[C@@H]1O` [C3G, cyanidin-3-glucoside], the figures for the IC50 in data set [1] and in data set [2] were 1120 µM and 364 µM, respectively.

In the case of `COc1cc(C(=O)O)ccc1O` [VA, vanillic acid], in data set [3], the “time of peak plasma concentrations” value was 0.5 to 1 h. Moreover, the “change in plasma concentration, mean difference between 60 and 120 min” value in data set [4] stood at 0.439.

As to `COc1cc(/C=C/C(=O)O)ccc1O` [FA, ferulic acid], in data set [3], the “time of peak plasma concentrations” value was 0.5 to 1 h. Further, the “change in plasma concentration, mean difference between 60 and 120 min” value in data set [4] is 1.08.

For the molecule `C[C@@H]1O[C@@H](OC[C@H]2O[C@@H](Oc3cc4c(O)cc(O)cc4[o+]c3-c3ccc(O)c(O)c3)[C@H](O)[C@@H](O)[C@@H]2O)[C@H](O)[C@H](O)[C@H]1O` [C3R, cyanidin-3-rutinoside], the IC50 in data set [1] turned out to be 904 µM; in data set [2] it was 483 µM.
